Assay results reported in article PMC4886532, “A highly soluble, non-phototoxic, non-fluorescent blebbistatin derivative” (Scientific Reports, 2016).
In brackets after ≈: the same amount, converted by molar mass.

Columns and labels:
[1] = target: T1, rabbit skeletal muscle myosin S1 (SkS1) (Oryctolagus cuniculus, UniProt Q28641); assay: Steady state basal ATPase, SkS1; format: biochemical; conditions: 25 °C
T1 construct: SkS1 (rabbit skeletal S1 fragment); from tissue; host or cells: rabbit skeletal muscle
T1 sequence (Q28641 1-844 limits assumed): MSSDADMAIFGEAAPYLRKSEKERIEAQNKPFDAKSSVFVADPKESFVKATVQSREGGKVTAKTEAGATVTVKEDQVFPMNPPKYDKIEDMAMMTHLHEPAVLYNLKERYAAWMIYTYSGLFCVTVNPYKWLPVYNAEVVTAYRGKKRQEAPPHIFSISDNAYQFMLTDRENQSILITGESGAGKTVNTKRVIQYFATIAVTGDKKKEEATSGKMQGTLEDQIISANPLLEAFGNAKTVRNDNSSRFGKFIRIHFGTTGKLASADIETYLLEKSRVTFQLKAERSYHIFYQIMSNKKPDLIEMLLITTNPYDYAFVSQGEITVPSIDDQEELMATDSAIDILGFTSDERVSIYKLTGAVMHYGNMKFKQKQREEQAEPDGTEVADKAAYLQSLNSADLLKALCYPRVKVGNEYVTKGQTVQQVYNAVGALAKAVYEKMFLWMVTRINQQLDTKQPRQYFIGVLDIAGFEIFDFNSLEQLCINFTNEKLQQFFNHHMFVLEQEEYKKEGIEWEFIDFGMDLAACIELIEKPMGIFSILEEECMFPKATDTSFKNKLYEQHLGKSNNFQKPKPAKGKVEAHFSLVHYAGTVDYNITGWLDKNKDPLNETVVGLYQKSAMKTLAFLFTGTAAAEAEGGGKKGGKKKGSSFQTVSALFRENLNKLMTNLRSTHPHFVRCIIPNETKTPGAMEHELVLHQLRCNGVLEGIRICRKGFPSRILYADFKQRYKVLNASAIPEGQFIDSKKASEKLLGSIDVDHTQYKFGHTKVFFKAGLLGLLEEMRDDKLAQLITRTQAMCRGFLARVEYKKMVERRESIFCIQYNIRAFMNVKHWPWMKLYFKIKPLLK
T1 sequence (P02602 whole entry partner, the tested form may be a part): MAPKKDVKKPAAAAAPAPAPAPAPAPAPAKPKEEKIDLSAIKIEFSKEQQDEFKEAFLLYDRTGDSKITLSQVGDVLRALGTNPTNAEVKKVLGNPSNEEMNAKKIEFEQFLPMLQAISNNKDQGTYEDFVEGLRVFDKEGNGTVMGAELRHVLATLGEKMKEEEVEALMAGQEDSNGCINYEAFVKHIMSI

[2] = target: T1, rabbit skeletal muscle myosin S1 (SkS1); assay: Steady state actin activated ATPase, SkS1; format: biochemical; conditions: for IC50: 45 μM actin, 25 °C
Experimental: […]. Myosin and actin together with the indicated concentration of the inhibitor were pre-incubated for 5 minutes at room temperature and the measurements were initiated with 1 mM ATP. Data were corrected for background ATPase activity of actin. G-actin was prepared accordingly from rabbit skeletal muscle[24] and polymerized by 2 mM MgCl2 for 1 hour at room temperature. Measurements were performed in low salt buffer containing 5 mM HEPES, 2 mM MgCl2, 0.1 mM EGTA and 2 mM DTT at pH 7.2 or assay buffer containing 20 mM HEPES, 40 mM NaCl, 4 mM MgCl2 at pH 7.3 for basal ATPase activity measurements with DdMD.

[3] = system: M2 cells; assay: Inhibition of blebbing (blebbing index) of M2 cells; format: cell-based, human
Experimental: Next, we compared the non-muscle myosin II inhibition by para-aminoblebbistatin, para-nitroblebbistatin and blebbistatin in human melanoma (M2) and HeLa cells. As blebbistatin acquired its name from its ability to block blebbing of M2 cells, we compared blebbing indices[17] of M2 cells in time, incubated in the three different myosin II inhibitors at different concentrations (Fig. 3c–e). Even 5 μM concentrations of the myosin II inhibitors achieved significant decrease in the blebbing indices of the cells within an hour, whereas higher concentrations of the inhibitors completely stopped blebbing of the cells within >40–60 minutes (10 μM) or >20 minutes (25 and 50 μM).
For blebbing index determination, M2 cells were incubated for 30 minutes in PBS in every case prior to the addition of inhibitors, in order to initiate extensive blebbing. Blebbing of the cells was monitored before as well as after inhibitor addition to the cells. DMSO concentration was 0.1 vol/vol% in all experiments. Blebbing index was calculated by summing the initiated blebs in a 5-minute interval (starting at the indicated time points) on a given standard area[17] (whole cells with similar size, diameter = 12 ± 1 μm) and normalizing it to the blebbing index prior to inhibitor treatment.

[4] = system: HeLa cells; assay: Wound healing assay (cell motility); format: cell-based, human; conditions: 20 μM, 24 hours, uncoated glass; 100% = total diameter of the wound; control 30.6 ± 5.4%
Experimental: For wound healing assays, 200 μl of HeLa cells were plated on 35 mm borosilicate glass imaging dishes at 300,000 cells/ml concentrations and incubated for 24 hours. 1 hour prior to wounding, cells were incubated in 20 μM of the different myosin II inhibitors. After one hour, scratches were made with pipette tips in monolayer cultures and the motility of cells for occupying the wound was monitored for 24 hours with a Foculus Digital Camera (IEEE1394). Analysis of cell motility was carried out by ImageJ, by measuring the distance between two lines fitted on the two sides of the approaching cell edges created by the pipette tips.

[5] = system: zebrafish skeletal muscle; assay: Fast escape response (C-start), maximal angular velocity; format: in vivo, zebrafish (Danio rerio); conditions: 2 μM
Experimental: (§1) Since the myosin II inhibitors decrease the ATPase activity of SkS1 in vitro, we tested their inhibition on zebrafish skeletal muscle in vivo. We investigated the fast escape response (C-start) reflex of 6 dpf fish evoked by standardized tapping stimuli (Video 1). […] The velocity of the rotating heads of the embryos were quantified (maximal angular velocity) in the absence and in the presence of increasing concentrations of the myosin II inhibitors (2, 5, 10, 20 μM), monitored for 4 hours. The half maximal effective concentration (EC50) values for the inhibition of the maximal angular velocity by the myosin II inhibitors are below 2 μM since even at 2 μM the inhibitory effects were >90% for all inhibitors. We experienced that the inhibitory effect of para-aminoblebbistatin is exerted much slower than that of blebbistatin and para-nitroblebbistatin, probably due to its slower uptake (half inhibitions at […], respectively) (Supplementary Figure 1). To further evaluate the specificity of blebbistatin and its derivatives on different myosin II isoforms, we examined the effect of the inhibitors on 6 dpf (days post fertilization) zebrafish heart muscle in vivo. We monitored heart beating and the amplitude of heart muscle contraction before and after the addition of 20 μM of the inhibitors to the specimens.
(§2) The tapping force was standardized. […] For the cytotoxicity assay, zebrafish embryos were incubated in E3 medium containing 0 μM (Control), 5 μM, 10 μM or 20 μM of para-aminoblebbistatin, para-nitroblebbistatin or blebbistatin in 0.1 vol/vol% final concentration of DMSO and monitored for 70 hours.

[6] = system: zebrafish heart muscle; assay: Heart beating and amplitude of heart muscle contraction; format: in vivo, zebrafish (Danio rerio); conditions: 20 μM, 6 dpf
Experimental: as §1, §2

[7] = system: cldnb:gfp zebrafish embryos; assay: Posterior lateral line primordium (pLLp) migration; format: in vivo, zebrafish (Danio rerio); conditions: 20 μM, 24 hours of incubation
Experimental: However, the highly fluorescent, dense precipitates of blebbistatin disturb imaging in the GFP channel of the microscope. […] In this experiment, cldnb:gfp zebrafish embryos were imaged by an epifluorescent microscope after 24 hours of incubation in the presence of 20 μM concentrations of the indicated inhibitors (Fig. 4d) in order to detect the effect of myosin II inhibition on the proliferating leading edge of the posterior lateral line primordium (pLLp)[21] and visualize the effect of the precipitates by epifluorescent microcopy. […] In the case of para-aminoblebbistatin treatment, the GFP signal of the migrating pLLp can be visualized clearly, while the precipitates of the two other inhibitors highly disturbed the imaging.

[8] = Solubility assays in assay buffer (supernatant concentration after centrifugation); conditions: for Solubility: room temperature
Experimental: 50 μM of the inhibitors were dissolved in assay buffer (see Experimental Procedures) containing 0.1 or 1 vol/vol% DMSO, centrifuged at the indicated times and the concentration of the supernatants were determined at each time point (Fig. 2a,b).
The DMSO content was 1%. […] The experiments were repeated three times.

[9] = system: rabbit skeletal, porcine cardiac and scallop striated myosins, vertebrate non-muscle myosin IIs and Dictyostelium discoideum myosin II; design: method as in PMID 15548862; conditions: read-out: IC50 actin-activated ATPase activity; cited from earlier work
[10] = system: Acanthamoeba myosin II; design: method as in PMID 15548862; conditions: read-out: IC50 actin activated ATPase activity; cited from earlier work
[11] = system: HeLa cells; design: method as in PMID 15676022; conditions: compared to 100% of the control; cited from earlier work
[12] = system: zebrafish embryo; design: method as in PMID 24954740; conditions: after 24 hours of incubation; cited from earlier work
[13] = cited from earlier work
[14] = Photoconversion / photostability under 480 ± 10 nm irradiation; conditions: 5 μM, up to 15 minutes
Experimental: We compared para-aminoblebbistatin’s photostability to blebbistatin’s by irradiating the molecules in assay buffer at 480 ± 10 nm for different lengths of time (which is a typical GFP excitation range) and recorded the absorption spectra afterwards (Fig. 2d).
Their absorbance spectra were measured at each time point.

Row | SMILES | IC50 [1] | IC50 [2] | Time constant τ of inhibition of blebbing ([3]; 5 μM) | Time constant τ of inhibition of blebbing ([3]; 10 μM) | Time constant τ of inhibition of blebbing ([3]; 25 μM) | Relative migration of HeLa cells [4] | Half inhibition time of maximal angular velocity [5] | Time within which amplitude of contraction and blood circulation dropped drastically [6] | Effect on pLLp migration [7] | also measured
1 | Cc1ccc2c(c1)C(=O)[C@]1(O)CCN(c3ccc(N)cc3)C1=N2 [para-aminoblebbistatin] | 1300 ± 100 nM | 470 ± 60 nM | 25.0 ± 4.3 min | 16.8 ± 1.6 min | 9.9 ± 0.3 min | 62.6 ± 3.6% | 3.2 h | within three hours | halted pLLp migration | Fold higher IC50 of AmBleb on SkS1 ([2]; comparator not named (matches ratio to Bleb)): 4.3 times; Time constant τ of inhibition of blebbing ([3]; 50 μM): 7.8 ± 0.3 min; Concentration at which stable solutions are formed [8]: over 100 μM
2 | Cc1ccc2c(c1)C(=O)C1(O)CCN(c3ccccc3)C1=N2 (stereo not drawn) [blebbistatin] | 300 ± 30 nM | 110 ± 9 nM | 24.6 ± 2 min | 10.5 ± 0.8 min | 5.4 ± 1 min | 51.4 ± 4.7% | 0.6 h | within the first hour | halted pLLp migration | IC50 [9]: 500 to 5000 nM; IC50 [10]: 83000 nM; Motility of HeLa cells on 2D surfaces [11]: ~ 140%; Toxicity in live zebrafish embryo tests [12]: highly toxic; Solubility (limited solubility) ([13]; depending on the conditions of the measurements): 7 to 20 µM; Concentration above which slow precipitation is observed ([13]; water): above 10 μM; Photostability: change of absorption spectrum on irradiation [14]: changed markedly; Solubility ([8]; 0.1 vol/vol% DMSO in assay buffer): 10.9 ± 0.9 µM (≈ 3.19 µg/mL); Solubility ([8]; 1 vol/vol% DMSO in assay buffer): 9.3 ± 0.7 µM (≈ 2.72 µg/mL); Solubility in aqueous buffer ([8]; abstract statement): below 10 micromolar; Time to drop to half concentration (precipitation kinetics) ([8]; freshly prepared 50 μM sample): < 20 min; Equilibrium saturation concentration ([8]; reached in two hours from 50–100 μM): 9 µM
